Data: a melting point compilation (Tetko et al.; mined from patent text by program, amines drawn as free bases though some values may be those of a salt)
Residues, ends and D or L forms follow the SMILES beside them. *: point of attachment. Bz = O=C(c1ccccc1)*

First: O=c1oc(-c2c(F)cccc2F)nn1-c1ccccc1Br
Second: Nc1nc2c(c(Nc3cccc(F)c3)n1)-c1ccccc1C2
The melting point of the first is lower: 111 to 114 °C for the first, 199 to 200 °C for the second.

Compared with `COC(=O)[C@H](O)[C@@H](N)c1ccccc1`, `CCNC(=O)[C@H](C)NC(=O)[C@H](C)NC(=O)c1ccccc1` (Bz-Ala-Ala-NHEt) is higher in melting point: 101 °C for the first, 237 to 239 °C for the second.

Compared with `Fc1ccccc1NC(=S)NCc1ccncc1`, `COc1ccc(S(=O)(=O)Nc2ccccc2NC(=O)c2ccncc2C)cc1` is higher in melting point: 145 °C for the first, 194 to 195 °C for the second.

First: CS(=O)(=O)NC(=O)CCCCBr
Second: COc1cc(C=CC(=O)CCCCCBr)cc(OC)c1
The melting point of the first is higher: 88 to 89 °C for the first, 73 to 76 °C for the second.

Compared with `Cc1nc(-c2cnc(Cc3ccccc3)o2)sc1C(=O)NCc1ccccc1`, `Cn1nnnc1SCC1=NCCc2cc(OCc3ccccc3)c(OCc3ccccc3)cc21` is higher in melting point: 141 to 142 °C for the first, 146 to 148 °C for the second.

Compared with `COc1ccc(CCN(C)C)c2nn[nH]c12`, `CCCCc1nc2c(O)ccc(CCN(C)C)c2[nH]1` is lower in melting point: 176 to 180 °C for the first, 97 to 105 °C for the second.

`OCc1cc(I)ccc1O` and `O=[N+]([O-])c1ccc(CO)c([N+](=O)[O-])c1` fall in the same range of melting point: 105 to 110 °C for the first, 105 to 110 °C for the second.

First: CNC(=O)Nc1snc(N2CCCC2)c1C#N
Second: O=CNNc1ccc(NC(=S)N2CCCCC2)cc1
The melting point of the first is higher: 239 °C for the first, 174 to 176 °C for the second.

First: O=S1(=O)c2ccccc2C(c2ccccc2)N1CCN1CCC(Cc2c[nH]c3ccc(F)cc23)CC1 (stereo not given)
Second: O=C(c1cc(=O)c2cc(O)ccc2[nH]1)N1CCC(Cc2ccccc2)CC1
The melting point of the first is higher: 175 °C for the first, 127 °C for the second.

Compared with `O=C(CCCCCCC(c1ccccc1)(c1ccccc1)c1ccccc1)NO`, `CCCCCCOc1ccc(C(=O)Nc2ccccc2Sc2ccccc2-c2nnn[nH]2)cc1` is higher in melting point: 100 to 103 °C for the first, 154 to 156 °C for the second.

First: C#CCOC(=O)N(I)C(C)C(=O)OC (stereo not given)
Second: CC(=O)NC(CC(C)C)C(=O)N1CC1C#N (racemic)
The melting point of the first is lower: 100 to 102 °C for the first, 112 to 116 °C for the second.

First: FC(F)(F)c1ccc(-c2cc(Oc3cncc4ccccc34)ncn2)cc1
Second: CC(C)c1nn(-c2ccc(C(F)(F)F)cn2)cc1CCCCOc1cc(CCC(=O)O)n(-c2ccccc2)n1
The melting point of the first is higher: 206 to 211 °C for the first, 137 to 138 °C for the second.

First: COc1cc(C)cc(-c2nn(CC#N)cc2-c2cc(NC[C@H](C)O)nc(-c3cccnc3)n2)c1
Second: CCOc1cccc(-c2cnc3[nH]cc(C(=O)C(C)(C)C)c3n2)c1
The melting point of the first is higher: 200 °C for the first, 195 to 196 °C for the second.

First: CCCCc1c(C(=O)OCC)cc(O)c2ccccc12
Second: CC1(CC(=O)O)OCCc2c1[nH]c1ccccc21 (stereo not given)
The melting point of the first is higher: 117 to 120 °C for the first, 87 to 90 °C for the second.

First: CC(=O)c1cc(-c2ccc(C)cc2)c2c(c1)C(C)(C)CCC2(C)C
Second: CC1(C)CCC(C)(C)c2cc(-c3cccc(-c4ccc(C(=O)O)cc4)c3O)ccc21
The melting point of the first is lower: 102 °C for the first, 121 °C for the second.

First: O=C1Nc2ccc(Cl)cc2C1c1ncnc2c1cnn2C1CCCCC1 (stereo not given)
Second: S=C(NCCCN1CCN(Cc2ccc(Cl)cc2)CC1)NC1CCCCC1
The melting point of the first is higher: 300 to 305 °C for the first, 127 to 128 °C for the second.

First: CCCc1c(C(=O)C(C)C)c2ccc(C(N)=O)cc2n1Cc1ccc(Cl)cc1
Second: C=C(c1ccc(N(C(=O)c2c(I)cccc2C(N)=O)C(C)C)c(C)c1)C(F)(F)F
The melting point of the first is lower: 183 to 184 °C for the first, 201 to 203 °C for the second.

Compared with `COC(=O)c1ccc(OC2=C3N=C4CCCCC4=C3C(Cc3ccccc3F)C=C2)o1` (stereo not given), `CCOC(=O)C1CC(=C2CCN(c3ccccc3)C2=O)c2ccc(Cl)cc2N1` (stereo not given) is higher in melting point: 121 to 122 °C for the first, 160 to 162 °C for the second.

First: O=C(O)Cc1ccc(Oc2ccc(F)cc2)cc1
Second: Nc1ccc(Oc2ccccc2OCc2ccccc2)cc1
The melting point of the first is lower: 87 to 89 °C for the first, 111 to 112 °C for the second.

First: COc1cc(N)c(Cl)cc1C(=O)NCC1CCN(CCCCCC(=O)c2csc3ccccc23)CC1
Second: COc1cc2c(-c3ccnc(NN)c3)c(CO)c(CO)cc2cc1OC1CCCC1
The melting point of the first is higher: 130 to 132 °C for the first, 127 to 130 °C for the second.

First: O=C(O)CCCCn1ccc2cc([N+](=O)[O-])ccc21
Second: O=[N+]([O-])c1ccc2[nH]c(/C=C/c3ccncc3)nc2c1
The melting point of the first is lower: 141 to 142 °C for the first, over 280 °C for the second.

First: COc1ccc(OC)c(CC2=C(C)C(=O)C3C=CC=CC3C2=O)c1 (stereo not given)
Second: COc1ccc(-c2ocnc2-c2cc(OC)c(O)c(OC)c2)cc1N
The melting point of the first is higher: 140 to 142 °C for the first, 101 to 102 °C for the second.

First: CC(C)(C)c1ccc(-c2c(Cl)c(CN3C(=O)CCC3=O)nc3sc4c(c23)CCNC4)cc1
Second: CN1C(=O)CC[C@]2(C)c3ccc(Sc4ccc5cc(F)ccc5n4)cc3CC[C@@H]12
The melting point of the first is higher: 210 to 212 °C for the first, 152 to 155 °C for the second.

First: N#Cc1ccccc1OCC(O)CN1CCN(c2ncccc2F)CC1 (stereo not given)
Second: CN1CCN(C2=Nc3cc(Cl)cc4ccn(c34)-c3ccccc32)CC1
The melting point of the first is lower: 68 to 70 °C for the first, 184 to 186 °C for the second.

First: CCCNC(=O)[C@H](C)C[C@H](O)[C@H](CC1CCCCC1)NC(=O)[C@H](Cc1cscn1)NC(=O)OC(C)(C)C
Second: COCCOC[C@H](CC1(C(=O)O)CCCC1)C(=O)Oc1ccc2c(c1)CCC2
The melting point of the first is higher: 182 to 184 °C for the first, 111 to 113 °C for the second.

First: N#Cc1c[nH]cc1-c1cccc(F)c1
Second: CC(=O)Nc1ncsc1-c1ccccc1
The melting point of the first is higher: 140 to 142 °C for the first, 105 to 107 °C for the second.

Going from `CC(C)c1nc(COC(N)=O)n(Cc2ccc[nH]c2=O)c1Sc1cc(Cl)cc(Cl)c1` to `COC(=O)C(Cl)Cc1ccc2ccc(Oc3c(Cl)cc(C(F)(F)F)cc3Cl)cc2c1` (stereo not given), the melting point falls from 214 °C to 136 °C.

First: O=C(O)Cc1ccc(CNC(=O)C2Cc3ccccc3N2S(=O)(=O)c2ccc(-c3cccc(C(F)(F)F)c3)cc2)c(F)c1 (stereo not given)
Second: O=C(Nc1ccc(S(=O)(=O)C(F)(F)F)cc1Cl)c1cc(Cl)c2ccccc2c1O
The melting point of the first is lower: 99 to 105 °C for the first, 234 °C for the second.

First: COc1ccc(CN(C)CCCSc2ccc(NC(=O)c3cccc4c(=O)c5cccc(OC)c5[nH]c34)cc2)cc1OC
Second: CC(=O)OCCCCC#Cc1ccc2c3ccc4c5c(ccc(c6cccc1c62)c53)C(=O)N(c1c(C(C)C)cccc1C(C)C)C4=O
The melting point of the first is lower: 184 to 186 °C for the first, over 300 °C for the second.

Compared with `COc1ccc(-c2nc(N)sc2-c2ccnc(N)c2)cc1`, `COc1ccc(Cn2cnc3c(Cl)nc(F)nc32)cc1` is lower in melting point: 251 to 254 °C for the first, 90 °C for the second.

First: Oc1c(C(Nc2ccc(F)cn2)c2ccccn2)ccc2cccnc12 (stereo not given)
Second: O=C(c1ccc(-n2ccc(CO)n2)cc1Cl)N1Cc2cccn2Cc2ccccc21
The melting point of the first is higher: 165 to 168 °C for the first, 85 °C for the second.

Compared with `Cc1ncccc1Cn1nnnc1-c1cccc(Cl)c1Cl`, `CS(=O)(=O)c1ccc(Cl)c(-c2n[nH]c3nc(Oc4ccc(F)cc4F)ncc23)c1` is higher in melting point: 121 to 122 °C for the first, 252 °C for the second.

First: CN(Cc1cccc2c1C(=O)N(C1CCC(=O)NC1=O)C2=O)C(=O)C1CC1 (stereo not given)
Second: Cc1[nH]c(C(=O)N2CCC(C(=O)NCCN(C)C)CC2)c(C)c1-c1nc2ccc(C(=O)c3ccccc3)cc2[nH]1
The melting point of the first is lower: 243 to 245 °C for the first, 258 to 260 °C for the second.

First: Cn1nc(-c2ccc(N)c([N+](=O)[O-])c2)c2ccccc21
Second: COC(=O)c1ccc(CC(C=O)c2cc(C(=O)OC)ccc2[N+](=O)[O-])c(OC)c1 (stereo not given)
The melting point of the first is higher: 231 °C for the first, 117 to 120 °C for the second.

First: C=CCN(CC=C)c1nc(NC(=O)OCC)n2oc(=O)nc2n1
Second: CCCN(CCC)C(=O)/C=C/CSc1nc(N)cc(Cl)n1
The melting point of the first is higher: 172 to 174 °C for the first, 139 to 142 °C for the second.

First: N#Cc1oc2c(sc3ccccc32)c1O
Second: CN(C)c1ccc2nc(N)c(C#N)c(O)c2c1
The melting point of the first is lower: 174 to 175 °C for the first, 360 °C for the second.

First: FC(F)C(F)(F)Sc1nc(-c2ccccc2)c(-c2ccccc2)n1C1CCCO1 (stereo not given)
Second: O=C(OCC1OC(n2ccc(-n3cncn3)nc2=O)C(OC(=O)c2ccccc2)C1OC(=O)c1ccccc1)c1ccccc1 (stereo not given)
The melting point of the first is higher: 145 to 146 °C for the first, 83 to 84 °C for the second.

First: CCN(CC)CCNc1ccnc2cc(C(F)(F)F)ccc12
Second: CCCCc1nn(-c2ccc(C(F)(F)F)cn2)cc1CCCOc1cc(CC(=O)O)ccc1OCC
The melting point of the first is higher: 122 to 124 °C for the first, 105 to 106 °C for the second.

First: CCNc1ncc2ccc(=O)n(C)c2n1
Second: CC(C)(C)OC(=O)Nc1sc(-c2cncc(F)c2)nc1F
The melting point of the first is higher: 194 to 195 °C for the first, 188 to 191 °C for the second.

Compared with `O=C(NCCc1ccc(O)c(O)c1)c1cccnc1`, `CC#CCOc1ccc(S(=O)(=O)N(Cc2cccnc2)C(CSCc2ccccc2)C(=O)NO)cc1` (stereo not given) is lower in melting point: 156 to 162 °C for the first, 74 to 78 °C for the second.

First: O=C1c2ccc(Cl)cc2OCN1CCO[N+](=O)[O-]
Second: CC(C)OCC(=O)NC1CCN(CC23CC(c4ccccc42)c2ccc(Cl)cc23)CC1 (stereo not given)
The melting point of the first is higher: 86 to 88 °C for the first, 50 to 53 °C for the second.

Compared with `CCCCN1C(=O)CSC(=NOC(=O)NC)C1C` (stereo not given), `CCOC(=O)C1CN2c3c(c(F)c(F)c(F)c3C1=O)CCN2C` (stereo not given) is higher in melting point: 118 to 120 °C for the first, 236 to 240 °C for the second.

Compared with `Cc1ccnc(C=NNC(N)=S)c1N`, `COC(=O)c1ccc(-c2noc(C)n2)s1` is lower in melting point: 227 to 228 °C for the first, 134 to 136 °C for the second.

First: CNn1cc(C(=O)O)c(=O)c2cc3c(cc21)OCO3
Second: O=C(O)Cc1noc(CC(=O)O)n1
The melting point of the first is higher: over 300 °C for the first, 109 to 111 °C for the second.

Compared with `CC(C)n1c2c(c3cccc(F)c31)C(=O)NCC2`, `O=c1[nH]ccc2ncccc12` is lower in melting point: 183 to 184 °C for the first, 156 to 159 °C for the second.

Compared with `O=C1c2cc(S(=O)(=O)N3CCCCC3)ccc2SC12CC2`, `CC(=O)Nc1ccc(C(=O)c2cc(-c3ccc(S(C)(=O)=O)cc3)c(N3CCOCC3)s2)cc1` is lower in melting point: 156 to 157 °C for the first, 129 °C for the second.

First: COc1cc2ccc(Br)cc2cc1C12CC3CC(CC(C3)C1)C2
Second: Cc1nc2cc(-c3ccc4c(c3)C=C(C(=O)Nc3ccc(CN(C)C5CCOCC5)cc3)CCS4(=O)=O)ccc2o1
The melting point of the first is lower: 164 to 168 °C for the first, 236 to 240 °C for the second.

Compared with `Cc1cccc(C)c1CNc1cc(C(=O)N(C)C)cc2c1nc(C)n2COCc1ccccc1`, `CN1c2ccc(-c3ccc4ccccc4c3)cc2Sc2cc(-c3ccc4ccccc4c3)ccc21` is higher in melting point: 55 to 56 °C for the first, 276 to 281 °C for the second.

Compared with `CC(=O)NC1(c2ccc(C(C)=O)cc2)CC1`, `COc1ccc(CC(=O)NC(NC(=NC#N)Nc2cccnc2OC)C(C)(C)C)cc1OC` (stereo not given) is higher in melting point: 128 to 131 °C for the first, 146 to 147 °C for the second.

Compared with `Cc1cccc2c1sc1nc(C(F)(F)F)nn12`, `COCOc1ccc(CCC(=O)c2c(OC)cc(OC)c(CCC(C)C)c2O)cc1OC` is lower in melting point: 80 to 81 °C for the first, 69 to 70 °C for the second.
